A value given as a limit tells only on which side of the number the result lay.

The subject of experiment [1] is HSV-1. Kind of experiment: Mouse HSV-1 zosteriform spread infection model. It counts as in vivo, Balb/c female mice. The settings on record: acyclovir 225 mg/kg/day topical. From the text: The assay was done as reported in Antimicrobial Agents and Chemotherapy, June 2002, p. 1766-1772, incorporated herein by reference for its procedure.
Balb/c female mice of 6 to 8 weeks which are non-pregnant and nulliparous were used for the study. All the animals were shaved on right mid dorsal area using electric hair clipper and few horizontal scarification was done on shaved area using sterile 26 gauge needle, just before viral challenge.
Prior to viral challenge, the scarified area of each mouse was cleaned with a cotton swab soaked in 70% alcohol followed by clearing the area using cotton swab soaked in sterile DMEM. Mice were then infected onto the scarified area with HSV-1 virus containing 8.27×10^3 pfu/animal. […]
The following formulations, as described in Example 6, were evaluated: • (a) Formulation IA • (b) Formulation IB • (c) Formulation IC
Formulation IA, Formulation IB and Formulation IC were applied topically thrice daily for a 5 day period. 15 mg of Formulation IA correspond to 225 mg/kg dose; 15 mg of Formulation IB correspond to 450 mg/kg dose; 15 mg of Formulation IC correspond to 675 mg/kg dose and 25 mg of Formulation IB correspond to 750 mg/kg dose evaluated in the animals.
The animals were assessed daily for morbidity, mortality and the site of infection for a period of 21 days post infection. […]

Experiment [2] has as its system HSV-2. Kind of experiment: Virucidal activity assay. It counts as cell-based. The settings on record: 25-400 μg/mL. The source says:
(§1) In the virucidal assay, the continuous presence of an antiviral drug may be frequently required for blocking infectivity of viral particle for cultured cells and dilution of the virus-extract complexes may dissociate, releasing infectious virus (Antiviral research, 2010, 86, 196-203). If a sample is unable to reduce virus infectivity at the IC50 or other potent concentrations then the antiviral activity is not related to its virucidal ability. […] HSV-1 virus suspension at a concentration of approximately 10^10 pfu/mL and HSV-2 at 10^9 pfu/ml were prepared. […] These admixtures were then diluted […] (1:100) to yield a final concentration range of 0.25-4 μg/ml corresponding to 25-400 μg/ml.

Experiment [3] concerns HSV-1. The experiment in a line: Virucidal activity assay. The experiment is classed as cell-based. The settings on record: 25-400 μg/mL.
Description: as §1

Experiment [4] relates to HSV-2. The experiment in a line: Effect on replication at different time points post-infection (MTT). It counts as cell-based. As to the method:
(§2) These stages occur at different time points in the virus life cycle spanning from 1 hour—initiation of adsorption to 24 hours—completion of one HSV replication cycle. Adsorption stage of the virus life cycle is the initial attachment of the herpes virus to host cells which involves interaction of gC and gD (conserved glycoproteins) on the virus with cell surface receptors such as heparin sulfate. Attachment stage of the virus life cycle is the stable attachment which allows close association of virus with the cell. The stage of the virus life cycle subsequent to the adsorption and attachment stages is known as the post infection stage. Vero cells were seeded onto 96-well flat-bottomed plates at a density of 2.2×10^4 cells/well in 10% FBS-DMEM growth medium. After 20-24 hours, the confluent monolayers were infected with 100 μL/well of 1:10^4 virus dilution (HSV-1 clinical strain) (TCID50 5.88×10^6/mL) or 1:10^3 dilution of HSV-2 (TCID50 2.43×10^6/mL) and plates incubated for 1 hour at 37° C. and 5% CO2. […] Maintenance medium was added to the wells for virus control (virus dilution+maintenance medium) and cell control (maintenance medium only). The plates were further incubated for 48-50 hours at 37° C. […] The plate was left in the 37° C., 5% CO2 incubator overnight. After incubation, the plate cover was removed and absorbance measured in each well at 570 nm in the microplate plate reader (BIO-TEK, Synergy HT).

In experiment [5] the test system is HSV-1. Described as above. The experiment is classed as cell-based. As for the experimental part:
as §2

For experiment [6], the system named is HSV-2. Kind of experiment: Antiviral activity prior to infection (pre-treatment plaque assay). It counts as cell-based. The settings on record: 3.125-400 μg/mL. As for the experimental part:
(§3) In order for herpes viruses to enter a target cell, they must fuse their lipid membrane envelope with the lipid membrane of the cell. This complex viral entry mechanism is mediated by at least three conserved glycoprotein's (gC, gB and gD) and their ability to bind cell surface receptors such as nectins and herpes virus entry mediator (HVEM) (Cell. Mol. Life Sci, 2008, 65, 1653-1668). […] Vero cells were seeded onto 24 well plates at a density of 1.8×10^5 cells/well. […] Following incubation, the plates were washed with 0.85% saline and stained with 0.13% crystal violet.

For experiment [7], the system named is HSV-1. The description is as above. The experiment is classed as cell-based. To be noted: 3.125-400 μg/mL. As for the experimental part: as §3
Experiment [8] relates to HSV-2. The experiment in a line: Virus penetration assay. The experiment is classed as cell-based. The settings on record: compared to sample 23 of Example 4. As for the experimental part: (§4) Penetration of HSV into host cells may be defined as a step subsequent to initial binding to the host cell surface which triggers fusion of the virion envelope with the plasma membrane. This requires multiple interactions, in a cascade like manner, involving various glycoproteins (gB, gD and gH/gL) and cell surface components (Cell. Mol. Life Sci, 2008, 65, 1653-1668). […] Vero cells were seeded onto 24 well plates at a density of 1.8×10^5 cells/well. […] The cells were incubated at 4° C. for 2 hours to allow viral attachment. […] The plates were then washed with 0.85% saline and stained with 0.13% crystal violet.

The subject of experiment [9] is HSV-1. Kind of experiment: Virus penetration assay. The experiment is classed as cell-based. To be noted: compared to sample 23 of Example 4. As for the experimental part: as §4
Experiment [10] relates to HSV-2. The experiment in a line: Mouse vaginal model of HSV-2 infection. To be noted: acyclovir 225 mg/kg/day intravaginal. The experiment is classed as in vivo, Balb/c female mice. As for the experimental part: The assay was done as reported in Antiviral Research, 2006, 69:77-85, incorporated herein by reference for its procedure.
Balb/c female mice of 6 to 8 weeks, non-pregnant and nulliparous were used for the study. Female BALB/c mice were used for vaginal inoculation with HSV-2. Five days prior to intravaginal (IVAG) challenge, mice were injected subcutaneously (sc) with 2 mg of progesterone (Depo-Provera®; Pfizer, Belgium) in the upper back, using a 29-gauge needle. On the day of challenge, mice were inoculated intravaginally with 1.14×10^5 pfu of HSV-2. IVAG administrations of virus were via a micropipette in a total volume of 20 μL DMEM. Animals received Formulation IA, Formulation IB, Formulation IC/acyclovir/placebo intravaginally by topical administration 30 minutes post infection. […]
The following formulations, as described in Example 6, have been evaluated: • (a) Formulation IA • (b) Formulation IB • (c) Formulation IC
Formulation IA, Formulation IB and Formulation IC were applied topically thrice daily for a 5 day period. 15 mg of Formulation IA correspond to 225 mg/kg dose; 15 mg of Formulation IB correspond to 450 mg/kg dose and 15 mg of Formulation IC correspond to 675 mg/kg dose evaluated in the animals.
The animals were assessed daily for extravaginal disease signs and survival for a period of 21 days post infection. […]

For experiment [11], the system named is HSV-2. The experiment in a line: Primary antiviral screening, CPE inhibition assay (crystal violet staining method). The experiment is classed as cell-based. To be noted: Human alphaherpesvirus 2. As to the method: (§5) The assay was done as reported in Indian J. Med. Res., 2004, 120:24-29 incorporated herein by reference for its procedure.
(§6) Vero cells (obtained in step 1 of Example 8) were propagated at a density of 1×10^4 cells/well in 96 well plate and incubated at 37° C. in a CO2 incubator for 24 hours to form a monolayer. Samples 1 to 26 were tested by adding at 50 μg/mL and 100 μg/mL concentration (DMSO stock of 20 mg/mL of the extract was diluted to 50 μg/mL and 100 μg/mL with DMEM containing 2% FBS) in a final culture volume of 200 μL/well. Appropriate controls were included such as Vero cells alone (cell control), Vero cells with virus (virus control) and Vero cells with virus and the standard compound, acyclovir (a commercially available antiviral drug). Acyclovir was tested at the following concentrations (DMSO stock of 20 mg/mL of acyclovir was diluted to 100 μg/mL with DMEM containing 2% FBS): 12.5 μg/mL, 6.25 μg/mL, 3.125 μg/mL, 1.5 μg/mL and 0.78 μg/mL against HSV-1 and 25 μg/mL, 12.5 μg/mL, 6.25 μg/mL and 3.125 μg/mL against HSV-2. The extracts to be assayed were added 1 hour prior to infection to provide maximum sensitivity and give a tentative idea of potential inhibitors of early replicative steps such as adsorption or penetration. After one hour, cells were infected with 100 μL of appropriate viral dose per well [HSV-1 at a multiplicity of infection (MOI) of 10^4 TCID50 or HSV-2 at a MOI of 10^3 TCID50] using viral stock obtained in step 2 of Example 8. The infected cells were incubated with maintenance medium (DMEM with 2% FBS) for another 48 to 50 hours. […] The staining solution was aspirated out and the plates rinsed using distilled water until all excess stain was washed away. The plates were allowed to dry for 24 hours. CPE was evaluated visually, after staining the plaques, and microscopically and graded according to the percentage of CPE inhibition as compared to controls.

Experiment [12] has as its system HSV-1. The experiment is described as above. The settings on record: Human alphaherpesvirus 1. It counts as cell-based. As for the experimental part: as §5, §6

One may read the inhibition as the drop in the measured response relative to a control, in per cent. A low value points to a response near the control. Regarding `Nc1nc2c(ncn2COCCO)c(=O)[nH]1` [Acyclovir], the mortality entry with HSV-1 [1] and in the experiment on HSV-2 [10] was “None of the mice died” throughout. In addition, the “recovery of all mice from zosteriform lesions” value with HSV-1 [1] was ≤ 7 day, post infection. The “virucidal effect against HSV-2” value in the experiment with HSV-2 [2] was 11-38%. The “virucidal effect against HSV-1” value with HSV-1 [3] is on record as 0-32%. Besides, the antiviral effect result is “potent antiviral effect” with HSV-2 [4] (3.125-200 μg/mL, 0-7 hours); “absent” with HSV-2 [4] (16-24 hours p.i.); “potent antiviral effect” with HSV-1 [5] (3.125-200 μg/mL, 0-7 hours); “about 17%” with HSV-1 [5] (16-24 hours). Further, in the experiment on HSV-2 [6], the “inhibitory effect against HSV-2 prior to infection” value is 10-20%. For the same molecule, the “inhibitory effect against HSV-1 prior to infection” value in the experiment with HSV-1 [7] is given as 10-40%. Besides, the “inhibitory activity (penetration)” value in the experiment on HSV-2 [8] and in the experiment with HSV-1 [9] was “weak to moderate inhibitory activity” in each case. Also, the “signs of extravaginal disease” value in the experiment on HSV-2 [10] is listed as “None of the mice showed signs of extravaginal disease”. Besides, the results for the inhibition at 3.125 µg/mL in the experiment on HSV-2 [11] (3.125 μg/mL) and in the experiment on HSV-1 [12] (3.125 μg/mL) were 11 to 25% and 51 to 75%, respectively. In addition, the inhibition at 6.25 µg/mL is 26 to 50% in the experiment on HSV-2 [11] (6.25 μg/mL) and 51 to 75% in the experiment with HSV-1 [12] (6.25 μg/mL). The values for the inhibition at 12.5 µg/mL with HSV-2 [11] (12.5 μg/mL) and in the experiment with HSV-1 [12] (12.5 μg/mL) were 51 to 75% and 76 to 100%, respectively. In addition, the inhibition at 25 µg/mL with HSV-2 [11] (25 μg/mL) was 76 to 100%. The molecule further showed an inhibition at 0.78 µg/mL with HSV-1 [12] (0.78 μg/mL) of 11 to 25%. Further, in the experiment on HSV-1 [12] (1.5 μg/mL), the inhibition at 1.5 µg/mL is 26 to 50%.
